These results are taken from PMC6382835, “A critical evaluation of TRPA1-mediated locomotor behavior in zebrafish as a screening tool for novel anti-nociceptive drug discovery” (Scientific Reports, 2019).

In this experiment the target is T1, zebrafish TRPA1a (zTRPA1a) (Danio rerio, UniProt Q5UM15).
T1 sequence (Q5UM15 1-1115): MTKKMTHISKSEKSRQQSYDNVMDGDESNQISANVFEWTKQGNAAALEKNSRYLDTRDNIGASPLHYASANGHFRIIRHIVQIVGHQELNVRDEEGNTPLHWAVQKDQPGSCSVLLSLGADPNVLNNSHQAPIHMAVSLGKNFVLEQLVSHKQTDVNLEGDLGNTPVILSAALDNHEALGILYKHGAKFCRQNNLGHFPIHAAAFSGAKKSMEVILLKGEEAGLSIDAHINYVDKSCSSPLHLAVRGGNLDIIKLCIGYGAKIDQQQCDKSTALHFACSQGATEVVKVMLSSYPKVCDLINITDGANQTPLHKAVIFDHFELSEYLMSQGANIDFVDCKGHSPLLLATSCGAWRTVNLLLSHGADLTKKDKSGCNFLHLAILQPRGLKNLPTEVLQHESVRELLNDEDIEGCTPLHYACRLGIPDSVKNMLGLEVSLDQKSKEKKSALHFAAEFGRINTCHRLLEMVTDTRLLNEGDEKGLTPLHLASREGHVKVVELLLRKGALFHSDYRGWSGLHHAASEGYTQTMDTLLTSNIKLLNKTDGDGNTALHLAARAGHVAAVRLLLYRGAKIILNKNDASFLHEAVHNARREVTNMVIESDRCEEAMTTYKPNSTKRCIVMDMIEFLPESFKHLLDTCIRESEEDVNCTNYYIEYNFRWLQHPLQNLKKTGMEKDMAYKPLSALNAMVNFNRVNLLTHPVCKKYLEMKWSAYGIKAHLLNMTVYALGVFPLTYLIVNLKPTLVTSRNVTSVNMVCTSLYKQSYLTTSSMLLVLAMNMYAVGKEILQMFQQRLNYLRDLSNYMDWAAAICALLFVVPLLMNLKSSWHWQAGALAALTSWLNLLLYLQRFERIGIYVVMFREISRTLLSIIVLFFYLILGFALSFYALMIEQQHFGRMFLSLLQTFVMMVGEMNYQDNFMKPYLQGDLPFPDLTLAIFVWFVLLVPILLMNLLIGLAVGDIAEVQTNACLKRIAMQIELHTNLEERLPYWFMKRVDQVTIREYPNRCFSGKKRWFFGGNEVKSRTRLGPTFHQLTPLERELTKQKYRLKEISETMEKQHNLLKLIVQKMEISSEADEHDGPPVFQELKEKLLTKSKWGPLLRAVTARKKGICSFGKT
Briefly: FLIPR calcium signaling assay in zTRPA1a-transfected HEK293 cells. Format: cell-based. As for the experimental part:
The cells were maintained in a 37 °C incubator with consistent 5% CO2. […] Experiments were carried out with the approval of the Institutional Biohazard Committee (#13-013-16).
Twenty-five µl calcium sensitive Fluorescent Imaging Plate Reader (FLIPR) Calcium 6 assay dye (#R8190, Molecular Devices, CA, USA) was added to each well of a 384-well plate containing HEK293 cells transiently expressing mTRPA1, zTRPA1a, and zTRPA1b, respectively. The cells were incubated for an hour prior to the recording of intracellular calcium levels in a FlexStation3 Multi-Mode Microplate Reader (#R8190, Molecular Devices) as previously described. […] During the assay, the cells were challenged by a 5x ASP7663 solution or 1% DMSO solution at the 20 seconds time point, and both solutions were diluted in calcium buffer. Relative fluorescence units (RFU) were measured for 120 seconds period by the Flexstation. […] For each specific antagonist concentration we plotted Log(dose ratio-1) against the antagonist concentration in a Schild plot. The dose ratio (A’/A) equals the EC50 of the agonist (ASP7665) in the presence of a concentration of the antagonist (A’) divided by the EC50 of the agonist in the absence of antagonist (A). The x-intercept of the Schild plot was used to identify the antagonist-receptor affinity (pA2).
All data are presented as means ± standard error of the mean (SEM). For our in vitro statistical analysis, AUC of calcium influx (RFU) was measured to plot dose-response curves, which were further analyzed by nonlinear regression analysis. Mean RFU of the first 10 seconds was used as a baseline of the AUC. EC50 values of the dose-response curves were further used to plot Schild curves, and the curves were analyzed with linear regression analysis. For the mice von Frey test, mechanical thresholds were analyzed with two-way ANOVA followed by a Bonferonni test for multiple comparison analysis. For the zebrafish behavior test, the data from the first five seconds following drug administration were excluded, as zebrafish displacement during that period was highly influenced by liquid dispensing. AUC of all curves were measured and analyzed by one-way ANOVA. The post-hoc analysis was conducted with the Tukey’s or Dunnett’s multiple comparisons unless it stated otherwise. […] For our time-course average displacement graph, we used 2nd degree polynomial smoothing for a better representation; however, we used data before smoothing for all statistical analysis and quantification. All in vitro and in vivo data were evaluated using GraphPad Prism 7 (GraphPad Software, La Jolla, CA) unless it stated otherwise.

[1] abbreviates: agonist calcium influx, zTRPA1a-transfected HEK293, read-out: EC50 (potency in µM).

Where two headings read alike, the source gives them in different places.

On to `CC(C)CN1C(=O)/C(=C/C(=O)O)c2cccc(F)c21` [ASP7663], for which the “pEC50 (AITC given as EC50)” value (agonist calcium influx, AUC of RFU, zTRPA1a-transfected HEK293) was 3.9 ± 0.18. Moreover, under setting [1], the EC50 worked out at 118 µM.

As to `CC(C)c1ccc(NC(=O)Cn2cnc3c2c(=O)n(C)c(=O)n3C)cc1` [HC-030031], the “calcium influx by antagonist alone” value (316 µM, zTRPA1a-transfected cells) is reported as “could produce an influx of intracellular calcium”. The “pEC50 (weak agonist activity)” value (HC030031 alone, zTRPA1a-transfected HEK293, Supplemental Fig. 6) came to 2.85 ± 0.19. The “pA2 expressed in µM” value (Schild plot against ASP7663-mediated calcium influx, zTRPA1a) was found to be 26.8 µM. Where the note is “Schild plot against ASP7663-mediated calcium influx, zTRPA1a, only two antagonist doses”, the pA2 was 4.6 ± 0.2. For the same compound, the Schild slope (zTRPA1a, n = 3) worked out at 0.84 ± 0.22.

Consider `C=CCN=C=S` [AITC, allyl isothiocyanate], for which the EC50 by setting is: (agonist calcium influx, AUC of RFU, zTRPA1a-transfected HEK293, read-out: pEC50 (AITC given as EC50) (converted)) 25.1 µM; under setting [1], 26.6 µM.

In general, EC50 refers to the concentration at which the effect is half-maximal. As a reminder, the pA2 is the negative logarithm of the molar antagonist concentration that doubles the agonist concentration needed for the same response.
